Measurements as given in patent publication US20150017628A1, “CRYOPRESERVATION OF CELLS IN ABSENCE OF VITRIFICATION INDUCING AGENTS” (UNIVERSITY OF WARWICK, priority 2012, published 2015).

Legend:
[1] = Ice recrystallisation inhibition (IRI) modified splat assay; format: physicochemical; settings: at these concentrations (1-10 mg·mL^-1)
Description: Determination of RI activity was achieved using a modified “splat” assay. A 10 μL droplet of the analyte solution in PBS was expelled at a fixed height of 2 m onto a glass coverslip placed upon a pre-cooled (CO2(s)) aluminium plate. This was immediately transferred onto the pre-cooled microscope stage (−6° C.) and left to anneal for 30 minutes. Photographs of the wafer were taken at both 0 and 30 minutes through crossed polarizers. A large number of the ice crystals (30+) were then measured to find the largest grain size dimension along any axis. The average largest value from 3 individual photographs was calculated to give the mean largest grain size (MLGS). Reported errors are the coefficient of variation (standard deviation/mean) from a minimum of 3 individual data sets. Values are reported as the MLGS relative to that obtained for PBS alone.
A polynucleated wafer of ice crystals (each ice crystal is <30 μm) was made from phosphate buffered saline (PBS) solutions of the additive being investigated. Following annealing at −6° C. for 30 minutes, the wafers were imaged through crossed polarisers and the size of the crystals measured. In addition to PVA, two common biocompatible polymers were also assessed for IRI activity; dextran and poly(ethylene glycol) (PEG, FIG. 1C), as they are both commonly added to cryopreservative solutions.

erythrocytes = experiment: Cryoprotectant haemocompatibility / cytotoxicity (haemolysis of erythrocytes); format: cell-based, ovine
Description: A 40 μL aliquot of the thawed erythrocyte solution was added to 400 μL PBS and centrifuged (1000×g, 5 min, 4° C.) to remove intact cells. 50 μL of the supernatant was added to 150 μL PBS in a 96-well plate and an absorbance measurement at 450 nm recorded to assess the extent of haemoglobin leakage. 100% haemolysis samples were prepared by osmotic shock through addition of 500 μL H2O to 500 μL erythrocytes suspension and the sample was vortexed vigorously. Control (0% haemolysis) samples were prepared by the addition of 500 μL PBS to 500 μL erythrocytes and left at room temperature (25° C.) for 60 minutes. All measurements were repeated a minimum of 5 times and the reported errors are the coefficient of variation (standard deviation/mean).
Erythrocytes were prepared as described above. A 500 μL aliquot of erythrocytes was added to 500 μL of the polymer or DMSO in PBS and mixed by inversion. The samples were incubated at 25° C. for 120 minutes before analysis. Haemolysis was measured in the same method as used for cryopreservation studies (above). All measurements were repeated in triplicate.
Fresh ovine (defibrinated) erythrocytes were prepared in an identical manner as aforementioned. Samples were prepared in triplicate. A 500 μL aliquot of erythrocytes was added to 500 μL 2× final concentration cryoprotectant in PBS and mixed by inversion. The samples were incubated at room temperature for 120 minutes before analysis. […] This is in contrast to some examples that defined toxicity only at levels exceeding 10% haemolysis. Concentrations higher than this were not deemed necessary for assessment.

SMILES | IRI activity of common vitrification solvents [1] | concentration above which significant haemolysis was observed (erythrocytes; 120 minutes at 25° C.) | concentration above which significant haemolysis was observed (erythrocytes; 120 minutes at room temperature, significant haemolysis >5%) | haemolytic property of common cryoprotectant (erythrocytes; general statement)
C[S+](C)[O-] [DMSO, dimethylsulfoxide] | little or no IRI activity | Above 1.5 w/v % | Above 1.5 wt % | strongly haemolytic
OCC(O)CO [glycerol] | little or no IRI activity | – | – | –
